Series [1] deals with HepG2 (hepatocellular carcinoma) cell line. The following applies: human.
The conditions of series [2]: human.
The conditions of series [3]: mouse.
The test system of the next series is P. berghei. The conditions noted are these: mouse, in vivo.
A further series can be described thus: in vitro. The conditions noted are these: mouse, microsomes.
For a further series, the target named is BoNT/A LC (Clostridium botulinum, UniProt P0DPI0). Put plainly: biochemical.
For series [4], the system named is P. falciparum African D6 clone. Put plainly: microbe, parasite or virus in culture. The format is cell-based. The conditions noted are these: Plasmodium falciparum, D6, read-out: D6 IC50.

Read-outs that look alike come from different tables or passages of the source.

These results are taken from PMC4032193 (Journal of Medicinal Chemistry, 2014).

BoNT/A LC, sequence (P0DPI0 2-448 limits assumed): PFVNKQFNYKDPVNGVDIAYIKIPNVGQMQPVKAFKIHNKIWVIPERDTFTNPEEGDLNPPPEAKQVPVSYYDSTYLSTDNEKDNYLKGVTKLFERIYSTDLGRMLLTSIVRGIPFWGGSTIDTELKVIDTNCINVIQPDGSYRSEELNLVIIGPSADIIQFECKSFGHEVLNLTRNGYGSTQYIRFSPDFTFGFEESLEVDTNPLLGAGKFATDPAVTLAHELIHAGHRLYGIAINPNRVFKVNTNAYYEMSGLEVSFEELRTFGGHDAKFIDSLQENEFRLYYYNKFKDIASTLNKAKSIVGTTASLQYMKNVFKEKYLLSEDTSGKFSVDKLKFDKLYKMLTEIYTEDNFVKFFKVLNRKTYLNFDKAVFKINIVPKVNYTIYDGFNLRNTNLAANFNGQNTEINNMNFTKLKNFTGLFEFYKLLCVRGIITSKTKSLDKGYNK

For `CC(=O)O[C@H]1C[C@H]2[C@@H]([C@H](OC(C)=O)C[C@@H]3C[C@H](N)CC[C@@]32C)[C@@H]2CC[C@H]([C@H](C)CCCN(C)CCNc3ccnc4cc(Cl)ccc34)[C@@]12C` [Compound 54, 24-N-Methyl-N-[(7-chloroquinoline-4-yl)amino]ethylamino-3α-amino-7α,12α-diacetoxy-5β-cholane], in series [1], the “SI HepG2/D6” value is listed as 4993/3995/2327, the “SI HepG2/TM91C235” value is 4993/3995/2327 and the “SI HepG2/W2” value was 4993/3995/2327. The “HLM stability (t1/2)” value in series [2] is given as 60/60 min. The “MLM stability (t1/2)” value in series [3] was 60/60 min. The protection/cure of mice entry with P. berghei was “failed to protect/cure mice”. Moreover, in the series on P. berghei (po), the “day postinfection on which mice died” value is listed as 13 and the “signs of compound toxicity upon necropsy” value was “no signs of tissue damage caused by compound toxicity”.
By half-life is commonly meant how long it takes for the measured level to halve. A lower half-life goes with rapid decline. As to `CC(=O)O[C@H]1C[C@H]2[C@@H]([C@H](OC(C)=O)C[C@@H]3C[C@H](O)CC[C@@]32C)[C@@H]2CC[C@H]([C@H](C)CCCNCCCNc3ccnc4cc(Cl)ccc34)[C@@]12C` [Compound 17], in series [1], the “SI HepG2/D6” value is listed as 84/115/90, the “SI HepG2/TM91C235” value is 84/115/90 and the “SI HepG2/W2” value was 84/115/90. This molecule showed a half-life in the series “in vitro” of over 1 h.
Turning to `CC(=O)O[C@H]1C[C@H]2[C@@H]([C@H](OC(C)=O)C[C@@H]3C[C@H](N(C)C)CC[C@@]32C)[C@@H]2CC[C@H]([C@H](C)CCCN(C)CCCNc3ccnc4cc(Cl)ccc34)[C@@]12C` [Compound 57], in series [1], the “SI HepG2/D6” value is listed as 93/35/71, the “SI HepG2/TM91C235” value is listed as 93/35/71 and the “SI HepG2/W2” value was 93/35/71. For the same molecule, in series [2], the “HLM stability (t1/2)” value was 60/60 min. For the same molecule, the “MLM stability (t1/2)” value in series [3] is reported as 60/60 min.
For `CC(=O)O[C@H]1C[C@H]2[C@@H]([C@H](OC(C)=O)C[C@@H]3C[C@H](NS(C)(=O)=O)CC[C@@]32C)[C@@H]2CC[C@H]([C@H](C)CCCN(C)CCCNc3ccnc4cc(Cl)ccc34)[C@@]12C` [Compound 43], in series [1], the “SI HepG2/D6” value is recorded as 93/89/139, the “SI HepG2/TM91C235” value was 93/89/139 and the “SI HepG2/W2” value is listed as 93/89/139. This molecule gave a half-life in “in vitro” of over 1 h.
For the molecule `CC(=O)O[C@H]1C[C@H]2[C@@H]([C@H](OC(C)=O)C[C@@H]3C[C@H](N(C)C)CC[C@@]32C)[C@@H]2CC[C@H]([C@H](C)CCCNCCNc3ccnc4cc(Cl)ccc34)[C@@]12C` [Compound 50, 24-N-[(7-Chloroquinoline-4-yl)amino]ethylamino-3α-N′,N′-dimethylamino-7α,12α-diacetoxy-5β-cholane], in series [1], the “SI HepG2/D6” value is 714/333/435, the “SI HepG2/TM91C235” value is recorded as 714/333/435 and the “SI HepG2/W2” value was 714/333/435. For the same molecule, the “HLM stability (t1/2)” value in series [2] is listed as 60/60 min. Moreover, in series [3], the “MLM stability (t1/2)” value is 60/60 min.
Broadly, the inhibition is the change of the read-out against control, counted positive when it falls. Low readings indicate little suppression, high ones strong suppression. Take `CC(=O)O[C@H]1C[C@H]2[C@@H]([C@H](OC(C)=O)C[C@@H]3C[C@H](NC(=O)OC(C)(C)C)CC[C@@]32C)[C@@H]2CC[C@H]([C@H](C)CCCN(CCCNc3ccnc4cc(Cl)ccc34)CCC[C@@H](C)[C@H]3CC[C@H]4[C@@H]5[C@H](OC(C)=O)C[C@@H]6C[C@H](NC(=O)OC(C)(C)C)CC[C@]6(C)[C@H]5C[C@H](OC(C)=O)[C@]34C)[C@@]12C` [Compound 59, N,N-Di(3α-amino-tert-butylcarbamate-7α,12α-diacetoxy-5β-cholan-24-yl)-N′-(7′-chloroquinoline-4′-yl)-1,3-propanediamine]: at BoNT/A LC (at 20 μM), the inhibition at 20 µM amounted to 6%. Further, in series [1], the “SI HepG2/D6” value is given as 96/96/96, the “SI HepG2/TM91C235” value is given as 96/96/96 and the “SI HepG2/W2” value was 96/96/96.
For the molecule `N=C(N)c1ccc(Oc2ccc(-c3cc4ccc(C(=N)N)cc4[nH]3)cc2)cc1` [NSC 240898, reference compound], on BoNT/A LC, the inhibition at 20 µM was 73.3%.
On to `CC(=O)O[C@H]1C[C@H]2[C@@H]([C@H](OC(C)=O)C[C@@H]3C[C@H](NC(=O)OC(C)(C)C)CC[C@@]32C)[C@@H]2CC[C@H]([C@H](C)CCCN(C)CCNc3ccnc4cc(Cl)ccc34)[C@@]12C` [Compound 44, 24-N-Methyl-N-[(7-chloroquinoline-4-yl)amino]ethylamino-3α-N′-tert-butylcarbamate-7α,12α-diacetoxy-5β-cholane], for which, in series [1], the “SI HepG2/D6” value was 293/264/144, the “SI HepG2/TM91C235” value is given as 293/264/144 and the “SI HepG2/W2” value is recorded as 293/264/144.
Regarding `CC(=O)O[C@@H]1CC[C@@]2(C)[C@@H](C1)C[C@@H](OC(C)=O)[C@@H]1[C@@H]2C[C@H](OC(C)=O)[C@]2(C)[C@@H]([C@H](C)CCCNCCCNc3ccnc4cc(Cl)ccc34)CC[C@@H]12` [Compound 13], in series [1], the “SI HepG2/D6” value was 104/101/67, the “SI HepG2/TM91C235” value is 104/101/67 and the “SI HepG2/W2” value is reported as 104/101/67.
As for `CC(=O)O[C@@H]1CC[C@@]2(C)[C@@H](C1)C[C@@H](OC(C)=O)[C@@H]1[C@@H]2C[C@H](OC(C)=O)[C@]2(C)[C@@H]([C@H](C)CCCNCCCCCCNc3ccnc4cc(Cl)ccc34)CC[C@@H]12` [Compound 15], in series [1], the “SI HepG2/D6” value is listed as 47/29/25, the “SI HepG2/TM91C235” value is 47/29/25 and the “SI HepG2/W2” value is 47/29/25.
On to `CC(=O)O[C@H]1C[C@H]2[C@@H]([C@H](OC(C)=O)C[C@@H]3C[C@H](N)CC[C@@]32C)[C@@H]2CC[C@H]([C@H](C)CCCN(CCC[C@@H](C)[C@H]3CC[C@H]4[C@@H]5[C@H](OC(C)=O)C[C@@H]6C[C@H](N)CC[C@]6(C)[C@H]5C[C@H](OC(C)=O)[C@]34C)CCNc3ccnc4cc(Cl)ccc34)[C@@]12C` [Compound 60, N,N-Di(3α-amino-7α,12α-diacetoxy-5β-cholan-24-yl)-N′-(7′-chloroquinoline-4′-yl)-1,3-ethanediamine], for which, in series [1], the “SI HepG2/D6” value is 21/19/19, the “SI HepG2/TM91C235” value is on record as 21/19/19 and the “SI HepG2/W2” value is reported as 21/19/19.
The IC50 is the concentration at which inhibition is half-maximal. In the case of `CCN(CC)CCCC(C)Nc1ccnc2cc(Cl)ccc12` (stereo not drawn) [Compound 9, chloroquine], the IC50 in series [4] came out at 12.3 nM.
With `CC(=O)O[C@H]1C[C@H]2[C@@H]([C@H](OC(C)=O)C[C@@H]3C[C@H](N)CC[C@@]32C)[C@@H]2CC[C@H]([C@H](C)CCCN(CCCNc3ccnc4cc(Cl)ccc34)CCC[C@@H](C)[C@H]3CC[C@H]4[C@@H]5[C@H](OC(C)=O)C[C@@H]6C[C@H](N)CC[C@]6(C)[C@H]5C[C@H](OC(C)=O)[C@]34C)[C@@]12C` [Compound 61], in series [1], the “SI HepG2/D6” value is reported as 10/9/7, the “SI HepG2/TM91C235” value is listed as 10/9/7 and the “SI HepG2/W2” value is 10/9/7.
Consider `CC(=O)O[C@H]1C[C@H]2[C@@H]([C@H](OC(C)=O)C[C@@H]3C[C@H](N(C)C)CC[C@@]32C)[C@@H]2CC[C@H]([C@H](C)CCCN(C)CCNc3ccnc4cc(Cl)ccc34)[C@@]12C` [Compound 56, 24-N-Methyl-N-[(7-chloroquinoline-4-yl)amino]ethylamino-3α-N′,N′-dimethylamino-7α,12α-diacetoxy-5β-cholane], for which, in series [1], the “SI HepG2/D6” value is reported as 6824/3920/3176, the “SI HepG2/TM91C235” value is reported as 6824/3920/3176 and the “SI HepG2/W2” value was 6824/3920/3176. Also, in the series “in vitro”, the half-life was over 1 h.
Turning to `CC(=O)O[C@@H]1CC[C@@]2(C)[C@@H](C1)C[C@@H](OC(C)=O)[C@@H]1[C@@H]2C[C@H](OC(C)=O)[C@]2(C)[C@@H]([C@H](C)CCCN(C)CCNc3ccnc4cc(Cl)ccc34)CC[C@@H]12` [Compound 20, N-Methyl-N-(3α,7α,12α-triacetoxy-5β-cholan-24-yl)-N′-(7′-chloroquinolin-4′-yl)ethane-1,2-diamine], in series [1], the “SI HepG2/D6” value is reported as 98/242/79, the “SI HepG2/TM91C235” value is 98/242/79 and the “SI HepG2/W2” value is 98/242/79.
For the molecule `CC(=O)O[C@@H]1CC[C@@]2(C)[C@@H](C1)C[C@@H](OC(C)=O)[C@@H]1[C@@H]2C[C@H](OC(C)=O)[C@]2(C)[C@@H]([C@H](C)CCCN(C)CCCNc3ccnc4cc(Cl)ccc34)CC[C@@H]12` [Compound 21], in series [1], the “SI HepG2/D6” value was 134/229/71, the “SI HepG2/TM91C235” value is listed as 134/229/71 and the “SI HepG2/W2” value is on record as 134/229/71.
Regarding `CC(=O)O[C@H]1C[C@H]2[C@@H]([C@H](OC(C)=O)C[C@@H]3CC(NCCCNc4ccnc5cc(Cl)ccc45)CC[C@@]32C)[C@@H]2CC[C@H]([C@H](C)CCCNCCCNc3ccnc4cc(Cl)ccc34)[C@@]12C` (mixture of isomers) [Compound 63], in series [1], the “SI HepG2/D6” value was 43/32/24, the “SI HepG2/TM91C235” value is listed as 43/32/24 and the “SI HepG2/W2” value is given as 43/32/24.
On to `CC(=O)O[C@H]1C[C@H]2[C@@H]([C@H](OC(C)=O)C[C@@H]3C[C@H](O)CC[C@@]32C)[C@@H]2CC[C@H]([C@H](C)CCCNCCCCNc3ccnc4cc(Cl)ccc34)[C@@]12C` [Compound 18], for which, in series [1], the “SI HepG2/D6” value is 47/30/28, the “SI HepG2/TM91C235” value is 47/30/28 and the “SI HepG2/W2” value was 47/30/28.
In the case of `CC(=O)O[C@H]1C[C@H]2[C@@H]([C@H](OC(C)=O)C[C@@H]3C[C@H](N)CC[C@@]32C)[C@@H]2CC[C@H]([C@H](C)CCCN(C)CCCNc3ccnc4cc(Cl)ccc34)[C@@]12C` [Compound 55], in series [1], the “SI HepG2/D6” value is on record as 45/44/50, the “SI HepG2/TM91C235” value was 45/44/50 and the “SI HepG2/W2” value is 45/44/50.
